The text below walks through data of patent publication US20230263822A1, “MODULATION OF FACTOR 11 EXPRESSION” (Ionis Pharmaceuticals, Inc., priority 2008, published 2023).

One data set deals with human Factor 11 mRNA. In words: Antisense inhibition of human Factor 11 in HepG2 cells by microwalk gapmers, lipofectin, 75 nM (Example 3). It is filed as cell-based. The note with it: HepG2 cells, lipofectin. The essentials:
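HepG2 cells (10,000/well) were transfected via lipofectin with 75 nM 20-mer MOE gapmers (phosphorothioate, 5-methyl-C) for about 24 h. Factor 11 mRNA was measured by qRT-PCR, normalized to RIBOGREEN total RNA, and given as percent inhibition versus untreated cells.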

Data set [1] in a line: Viscosity of ISIS antisense oligonucleotides, micro-viscometer at 25 °C (Example 47). The class given is physicochemical. The note with it: for Concentration: concentration of the viscosity sample, UV reading at 260 nM at 85° C.; for Viscosity: in water, micro-viscometer at 25° C., at the concentration of the same line. An outline of the steps: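 Oligonucleotide (32-35 mg) was dissolved in 120 μL water by heating at 50° C, and viscosity was measured by micro-viscometer at 25° C. Concentration was checked by UV at 260 nm at 85° C on a dilution in water. Screening cut-off: >40 cP at 165-185 mg/mL.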

The nature of data set [2]: Tolerability in Sprague-Dawley rats: kidney function, urine protein/creatinine (Example 35). To be noted: Sprague-Dawley rats; plasma; 50 mg/kg s.c. twice per week for 6 weeks.
Description: A control group of four Sprague Dawley rats was injected subcutaneously with PBS twice per week for 6 weeks. Body weight measurements were taken before and throughout the treatment period. Urine samples were taken before the start of treatment. Three days after the last dose, urine samples were taken and the rats were sacrificed. Organ weights were measured and blood was collected for further analysis.
To evaluate the effect of kidney function, plasma concentrations of blood urea nitrogen (BUN) and creatinine were measured using an automated clinical chemistry analyzer (Hitachi Olympus AU400e, Melville, N.Y.).
The nature of data set [3]: Hematology assays in cynomolgus monkeys (Example 46). The class given is in vivo. The method, then:
Groups, each consisting of two male and two female monkeys, were injected subcutaneously with 25 mg/kg of ISIS 416850, ISIS 449709, ISIS 445522, ISIS 449710, ISIS 449707, ISIS 449711, ISIS 449708, 416858, and ISIS 445531. Antisense oligonucleotide was administered to the monkeys at 25 mg/kg three times per week for week 1 and 25 mg/kg twice per week for weeks 2 to 8. A control group, consisting of two male and two female monkeys was injected subcutaneously with PBS according to the same dosing regimen. Body weights were taken 14 days and 7 days before the start of treatment and were then measured weekly throughout the treatment period. Blood samples were collected 14 days and 5 days before the start of treatment and subsequently several times during the dosing regimen for PT and aPTT measurements, and measurement of various hematologic factors. On day 55, the monkeys were euthanized by exsanguination while under deep anesthesia, and organs harvested for further analysis.

[4] abbreviates: gapmers targeted to nucleobases 1275 to 1318 of SEQ ID NO: 1.

“And” between values parts separate entries of the source, which are not always exact repeats. Identical values can stand only once. Strand notation (5' to 3'): a small letter for the sugar, then the base; units joined by * are phosphorothioate-linked, units joined directly phosphodiester-linked; [ ] holds rarer units or linkages, { } end groups; capitals alone tell only the bases. e = 2'-O-(2-methoxyethyl) (MOE); [5mC] = 5-methylcytosine; d = 2'-deoxy (DNA)

Broadly, the % inhibition is the drop in the measured response relative to a control, in per cent. In the case of “412206 (antisense e[5mC]*e[5mC]*eG*eT*eG*d[5mC]*dA*dT*d[5mC]*dT*dT*dT*d[5mC]*dT*dT*eG*eG*e[5mC]*eA*eT) [compound 412206]”, the “% inhibition” value in the data set on human Factor 11 mRNA (gapmers targeted to nucleobases 738 to 762 of SEQ ID NO: 1) is 93%.
Turning to “412223 (antisense ACAGTTTCTGGCAGGCCTCG; 5-10-5 MOE gapmer, further chemistry not given here) [compound 412223]”, the “% inhibition” value in the data set with human Factor 11 mRNA (setting [4]) was 85%. In data set [1], the Concentration is listed as 163 mg/mL and the Viscosity was 8 cP.
Turning to “412224 (antisense GCATTGGTGCACAGTTTCTG; 5-10-5 MOE gapmer, further chemistry not given here) [compound 412224]”, the “% inhibition” value in the data set with human Factor 11 mRNA (setting [4]) was determined as 93%. Further, in data set [1], the Concentration came out at 186 mg/mL and the Viscosity was found to be 98 cP.
For the substance “412225 (antisense GCAGCGGACGGCATTGGTGC; 5-10-5 MOE gapmer, further chemistry not given here) [compound 412225]”, the “% inhibition” value with human Factor 11 mRNA (setting [4]) amounted to 86%. In addition, in data set [1], the Concentration amounted to 162 mg/mL and the Viscosity was greater than 100 cP.
On to “413482 (antisense GGACGGCATTGGTGCACAGT; 5-10-5 MOE gapmer, further chemistry not given here) [compound 413482]”, for which the “% inhibition” value in the data set with human Factor 11 mRNA (setting [4]) was found to be 89%. Moreover, in data set [1], the Concentration stood at 172 mg/mL and the Viscosity was found to be 16. cP.
Taken in the same sequence, the figures for “416856 (antisense GGCATTGGTGCACAGTTTCT; 5-10-5 gapmer, further chemistry not given here) [compound 416856]” were 95%, 175 mg/mL and 18 cP.
In the case of “445522 (antisense eG*e[5mC]*eA*e[5mC]*eA*dG*dT*dT*dT*d[5mC]*dT*dG*dG*e[5mC]*eA*eG*eG*e[5mC]) [compound 445522]”, in data set [1], the Concentration was 173 mg/mL and 174 mg/mL; the Viscosity is 63 cP and 58 cP.
“445531 (antisense eG*eG*e[5mC]*eA*eT*dT*dG*dG*dT*dG*d[5mC]*dA*d[5mC]*eA*eG*eT*eT*eT) [compound 445531]”: in data set [1], the Concentration was 155 mg/mL and 179 mg/mL; the Viscosity was 15 cP and 20 cP.
In data set [2], “ISIS 416838: MOE gapmer, nucleobases 1018 to 1042 of SEQ ID NO: 1 (Table 6) (antisense GCAACCGGGATGATGAGTGC; MOE gapmer, wing and gap sizes not given here)” showed a BUN of 4 mg/dL and a Creatinine of 5 mg/dL.
In data set [2], “ISIS 416864: MOE gapmer, nucleobases 1275 to 1318 of SEQ ID NO: 1 (Table 8) (antisense GGCAGCGGACGGCATTGGTG; MOE gapmer, wing and gap sizes not given here)” showed a BUN of 5 mg/dL and a Creatinine of 6 mg/dL.
The matching figures for “ISIS 417002: MOE gapmer, nucleobases 1275 to 1318 of SEQ ID NO: 1 (Table 8) (antisense GGTGCACAGTTTCTGGCAGG; MOE gapmer, wing and gap sizes not given here)”: 11 mg/dL and 1 mg/dL.
In data set [3] (Day 17), “ISIS 449711: 3-8-3, 4-8-4, 2-10-2, 3-10-3 or 4-10-4 MOE microwalk gapmer (Table 46) (antisense eA*e[5mC]*dA*dG*dT*dT*dT*d[5mC]*dT*dG*dG*d[5mC]*eA*eG)” displayed an HCT of 42%, an MCH of 22.2 pg, an MCHC of 29.9 g/dL and an MCV of 75 fL. Moreover, in data set [3] (Day 17), the RBC count was found to be 5.6e+06 µL⁻¹, the WBC count was found to be 10000 µL⁻¹, the hemoglobin content amounted to 12.5 g/dL and the monocytes amounted to 5.9%. In data set [3] (Day 17), the neutrophils came out at 52% and the platelet count is given as 325 ×100/μL. In data set [3] (Day 31), this substance had an HCT of 39%, an MCH of 22.1 pg, an MCHC of 29.8 g/dL and an MCV of 73 fL. In data set [3] (Day 31), this substance gave an RBC count of 5.4e+06 µL⁻¹, a WBC count of 9000 µL⁻¹, a hemoglobin content of 11.8 g/dL and a monocytes of 6.9%. Besides, in data set [3] (Day 31), the neutrophils came to 58% and the platelet count is 309 ×100/μL. For the same substance, in data set [3] (Day 45), the HCT is reported as 39%, the MCH worked out at 21.7 pg, the MCHC amounted to 29.6 g/dL and the MCV came to 73 fL. For the same substance, in data set [3] (Day 45), the RBC count came to 5.4e+06 µL⁻¹, the WBC count came out at 9000 µL⁻¹, the hemoglobin content is 11.5 g/dL and the monocytes is 7.6%. Further, in data set [3] (Day 45), the neutrophils was determined as 45% and the platelet count was 257 ×100/μL. In data set [3] (Day 55), this substance had an HCT of 38%, an MCH of 21.3 pg, an MCHC of 29.5 g/dL and an MCV of 73 fL. In data set [3] (Day 55), this substance yielded an RBC count of 5.3e+06 µL⁻¹, a WBC count of 7000 µL⁻¹, a hemoglobin content of 11.3 g/dL and a monocytes of 7.8%. Also, in data set [3] (Day 55), the neutrophils is on record as 70% and the platelet count is given as 259 ×100/μL. In data set [3] (Day-5), the HCT is listed as 41%, the MCH is 22.7 pg, the MCHC was determined as 30.7 g/dL and the MCV came out at 74 fL. Further, in data set [3] (Day-5), the RBC count stood at 5.7e+06 µL⁻¹, the WBC count turned out to be 12000 µL⁻¹, the hemoglobin content is reported as 12.7 g/dL and the monocytes stood at 2.3%. Further, in data set [3] (Day-5), the neutrophils is 71% and the platelet count is 431 ×100/μL. In data set [3] (Day-14), the HCT turned out to be 41%, the MCH turned out to be 22.6 pg, the MCHC was determined as 31.0 g/dL and the MCV turned out to be 73 fL. In data set [3] (Day-14), this substance gave an RBC count of 5.6e+06 µL⁻¹, a WBC count of 13000 µL⁻¹, a hemoglobin content of 12.7 g/dL and a monocytes of 1.2%. In data set [3] (Day-14), the neutrophils was determined as 64% and the platelet count is reported as 410 ×100/μL.
